Where two headings read alike, the source gives them in different places.
What was measured:
[1] = Acute toxicity test (oral); set-up: species or system mouse (ddY-strain); details: mouse, in vivo, male ddY mice, fasted 20 h, deaths over 7 days
Method: The test compounds of the present invention suspended in 0.5% aqueous solution of carboxymethylcellulose (C.M.C.) were orally administered to groups of 4 to 6 ddY-strain male mice (weighing about 19 g) which had fasted for 20 hours. The lethal dose was determined by the number of deaths for 7 days thereafter.

Blood Glucose = assay: Hypoglycemic effect in glucose-loaded fasted rats (blood glucose); type: in vivo, rat (Wistar-strain); details: 2 h
Method: Groups of 7 Wistar-strain male rats (weighing about 200 g) which were fasted for 18 hours were used for measurement of hypoglycemic effect according to the modified method by Dulin et al. [Dulin, W. L. et al., Proc. Soc. Expl. Med., 107, 245 (1961)]. That is, 0.5 ml/100 g of 20% aqueous solution of glucose was subcutaneously administered to the backs of rats to prevent a decrease in blood glucose level because of the fasting. Immediately thereafter the test drug suspended in 0.5% aqueous C.M.C. solution was orally given, and 2 hours later, the animals underwent laparotomy under pentobarbital anesthesia, then blood was drawn from the vena cava. The obtained blood sample was allowed to stand for 30 minutes to complete the coagulation and was centrifuged to obtain the serum. Blood sugar level was measured according to the mutalotase GOD method [Trinder, Ann. Clin. Biochem., 6, 24 […]]. Asterisks indicate significant differences (*: p<0.05, **: p<0.01, ***: p<0.001) from the control.

Serum Triglyceride = assay: Hypolipidemic effect: serum triglyceride; type: in vivo, rat (Wistar-strain); details: 100 mg/kg oral, 2 h; for Serum Triglyceride Level: control 65 ± 5 (compounds 2-12), 57 ± 4 (compounds 15-29); for inhibition in vivo at 100 mg/kg: Rattus norvegicus, vs control, read-out: Serum Triglyceride Decrease
Method: (§1) The test drugs suspended in 0.5% aqueous C.M.C. solution were orally administered to groups of 8 Wistar-strain male rats (weighing about 185 g) which were fasted for 18 to 20 hours. 2 hours later, the serum was obtained in the same manner described in (2). Serum triglyceride was measured according to the GPO-p-chlorophenol colorimetric determination [Richard W. Spayd et al., Clinical Chemistry, 24, 1343 (1978)], serum free fatty acid was measured according to the Acyl CoA Synthetase-Acyl CoA Oxidase method [Shimizu S. et al., Biochem. Biophys. Res. Commun., 91, 108 (1979)], free fatty acid was measured according to the enzymatic method [Charles C. Allain et al., Clin. Chem., 20, No. 4, 470 (1974)] and total cholesterol was measured according to the enzymatic method [Takayama M. et al., Clinica Chimica Acta, 79, 93 (1977)]. Asterisks indicate significant differences (*: p<0.05, **: p<00.01, ***: p<0.001) from the control.

Serum Free Fatty Acid = assay: Hypolipidemic effect: serum free fatty acid; type: in vivo, rat (Wistar-strain); details: 100 mg/kg oral, 2 h; for Serum Free Fatty Acid Level: control 0.53 ± 0.03 (compounds 2-12), 0.52 ± 0.03 (compounds 15-24); for inhibition in vivo at 100 mg/kg: Rattus norvegicus, vs control, read-out: Serum Free Fatty Acid Decrease
Method: as §1

Total Serum Cholesterol = assay: Hypolipidemic effect: total serum cholesterol; type: in vivo, rat (Wistar-strain); details: 100 mg/kg oral, 2 h
Method: as §1

Serum Phospholipid = assay: Hypolipidemic effect: serum phospholipid; type: in vivo, rat (Wistar-strain); details: 100 mg/kg oral, 2 h; for Serum Phospholipid Level: control 79 ± 2 (compounds 2-12), 72 ± 2 (compounds 15-29); for inhibition in vivo at 100 mg/kg: Rattus norvegicus, vs control, read-out: Serum Phospholipid Decrease
Method: as §1

[2] = Rattus norvegicus, Table 2, 100 mg/kg oral, vs control, read-out: Blood Glucose Decrease
[3] = Table 2, 100 mg/kg oral, control 133 ± 6

Compound	LD50 at 168 h [1] [mg/kg]	inhibition in vivo at 100 mg/kg (Blood Glucose; Rattus norvegicus, Table 3, 100 mg/kg oral, vs control, read-out: Blood Glucose Decrease) [%]	Blood Glucose Level (Blood Glucose; Table 3, 100 mg/kg oral, control 133 ± 4) [mg/dL]	Serum Triglyceride Level (Serum Triglyceride) [mg/dL]	inhibition in vivo at 100 mg/kg (Serum Triglyceride) [%]	Serum Free Fatty Acid Level (Serum Free Fatty Acid) [mEq/l]	inhibition in vivo at 100 mg/kg (Serum Free Fatty Acid) [%]	Total Serum Cholesterol Level (Total Serum Cholesterol; control 44 ± 2 (compounds 4-12), 41 ± 1 (compounds 15-29)) [mg/dL]	inhibition in vivo at 100 mg/kg (Total Serum Cholesterol; Rattus norvegicus, vs control, read-out: Total Serum Cholesterol Decrease) [%]	Serum Phospholipid Level (Serum Phospholipid) [mg/dL]	inhibition in vivo at 100 mg/kg (Serum Phospholipid) [%]	inhibition in vivo at 100 mg/kg (Blood Glucose; [2]) [%]	Blood Glucose Level (Blood Glucose; [3]) [mg/dL]	inhibition in vivo at 12.5 mg/kg (Blood Glucose; Rattus norvegicus, Table 2, 12.5 mg/kg oral, vs control, read-out: Blood Glucose Decrease) [%]	inhibition in vivo at 25 mg/kg (Blood Glucose; Rattus norvegicus, Table 2, 25 mg/kg oral, vs control, read-out: Blood Glucose Decrease) [%]	inhibition in vivo at 50 mg/kg (Blood Glucose; Rattus norvegicus, Table 2, 50 mg/kg oral, vs control, read-out: Blood Glucose Decrease) [%]	Blood Glucose Level (Blood Glucose; Table 2, 12.5 mg/kg oral, control 133 ± 6) [mg/dL]	Blood Glucose Level (Blood Glucose; Table 2, 25 mg/kg oral, control 133 ± 6) [mg/dL]	Blood Glucose Level (Blood Glucose; Table 2, 50 mg/kg oral, control 133 ± 6) [mg/dL]
O=C1NC(=O)N(Cc2ccccc2)C1=O [compound 15, 1-benzylimidazolidinetrione]	~1000	15.8	112 ± 3	30 ± 1	47.4	0.44 ± 0.02	15.4	33 ± 1	19.5	52 ± 1	27.8								
CCN1C(=O)NC(=O)C1=O [compound 3, 1-ethylimidazolidinetrione]	~700											24.8	100 ± 2						
CN1C(=O)NC(=O)C1=O [compound 2, 1-methylimidazolidinetrione]	~900			22 ± 1	66.2	0.25 ± 0.03	52.8			59 ± 1	25.3	25.6	99 ± 5	18	25.6	31.6	109 ± 5	99 ± 2	91 ± 4

From patent US4683240A, “Pharmaceutical composition containing an imidazolidinetrione derivative or pharmaceutically acceptable salt thereof” (Nippon Zoki Pharmaceutical Co., Ltd., priority 1985, dated 1987)
